Here are results for 1 compound from patent US9670261B2 (Sanofi, priority 2012, dated 2017).

Data set [1] deals with T1, human GLP-1 receptor (Homo sapiens, UniProt P43220).
T1 construct: expressed in transfected cells
In words: cAMP response (HTRF) of HEK-293 cells stably expressing human GLP-1 receptor. Type of data set: cell-based. As to conditions: Table 7; cAMP formation; read-out: EC50 hGLP-1 R. The protocol:
cAMP content of cells was determined using a kit from Cisbio Corp. (cat. no. 62AM4PEC) based on HTRF (Homogenous Time Resolved Fluorescence). For preparation, cells were split into T175 culture flasks and grown overnight to near confluency in medium (DMEM/10% FBS). Medium was then removed and cells washed with PBS lacking calcium and magnesium, followed by proteinase treatment with accutase (Sigma-Aldrich cat. no. A6964). Detached cells were washed and resuspended in assay buffer (1×HBSS; 20 mM HEPES, 0.1% BSA, 2 mM IBMX) and cellular density determined. They were then diluted to 400000 cells/ml and 25 μl-aliquots dispensed into the wells of 96-well plates. For measurement, 25 μl of test compound in assay buffer was added to the wells, followed by incubation for 30 minutes at room temperature.
A general note: TR-FRET usually uses a lanthanide donor and a delayed reading to cut background.

Data set [2] is described as follows: Pharmacokinetic testing in mice, s.c. As to conditions: mouse, plasma, sc, 1 mg/kg.
Protocol: Mice were dosed 1 mg/kg subcutaneously (s.c.). The mice were sacrified and blood samples were collected after 0.25, 0.5, 1, 2, 4, 8, 16 and 24 hours post application. Plasma samples were analyzed after protein precipitation via liquid chromatography mass spectrometry (LC/MS). PK parameters and half-life were calculated using WinonLin Version 5.2.1 (non-compartment model).
Data set [3] in a line: Solubility testing in buffer (HPLC-UV). As to conditions: buffer.
A short description of data set [4]: Chemical stability in solution, 7 days at 25° C. (% remaining peptide). As to conditions: % remaining peptide after 7 days at 25° C.
Protocol: After that time course, the sample was centrifuged for 20 min at 4000 rpm and the supernatant was analysed with HPLC-UV. For determination of the amount of the remaining peptide, the peak areas of the target compound at t0 and t7 were compared, resulting in “% remaining peptide”, following the equation % remaining peptide=[(peak area peptide t7)×100]/peak area peptide t0.
The chemical stability is expressed as “% remaining peptide”.

Converted amounts (≈) assume the structure as drawn. *1 amine or outer side, *2 acyl side, *3 side chain or, on linkers, in order; H or OH if unused. Where a SMILES comes first, the peptide text is derived from it. Side-chain parts run from the residue outwards. [ ]: non-standard residue; d: D form. The star is where a group is joined. γGlu = O=C(O)[C@H](CCC(=O)[*:2])N[*:1]; Palmitoyl = CCCCCCCCCCCCCCCC(=O)*; Aib = CC(C)(N)C(=O)O

T1 sequence (P43220 24-463): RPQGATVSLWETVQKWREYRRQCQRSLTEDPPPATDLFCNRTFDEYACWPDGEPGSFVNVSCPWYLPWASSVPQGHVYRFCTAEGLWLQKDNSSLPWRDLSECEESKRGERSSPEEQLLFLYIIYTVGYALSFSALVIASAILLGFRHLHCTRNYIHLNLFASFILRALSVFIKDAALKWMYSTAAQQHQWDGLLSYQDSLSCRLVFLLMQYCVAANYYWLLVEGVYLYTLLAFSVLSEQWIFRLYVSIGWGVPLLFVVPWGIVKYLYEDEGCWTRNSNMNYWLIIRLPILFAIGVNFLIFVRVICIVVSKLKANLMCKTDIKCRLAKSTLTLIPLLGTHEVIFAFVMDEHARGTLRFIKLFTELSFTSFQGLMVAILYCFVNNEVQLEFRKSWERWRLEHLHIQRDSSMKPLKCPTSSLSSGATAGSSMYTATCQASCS

As usually defined, the EC50 is the concentration giving half of the maximal effect. In general, Cmax refers to the highest concentration seen after dosing. A word on the half-life: it is the time in which the quantity being followed falls by half. High values mean slow loss, low ones fast loss. As a reminder, the solubility is the concentration that dissolves in the medium under given conditions. Read a high solubility as much dissolved substance. With `CCCCCCCCCCCCCCCC(=O)N[C@@H](CCC(=O)NCCCC[C@H](NC(=O)[C@H](CCC(N)=O)NC(=O)[C@@H](NC(=O)[C@H](CO)NC(=O)[C@H](CC(C)C)NC(=O)[C@H](CC(=O)O)NC(=O)[C@H](CO)NC(=O)[C@@H](NC(=O)[C@H](Cc1ccccc1)NC(=O)[C@@H](NC(=O)CNC(=O)[C@H](CCC(N)=O)NC(=O)C(C)(C)NC(=O)[C@@H](N)Cc1ccc(O)cc1)[C@@H](C)O)[C@@H](C)O)[C@@H](C)CC)C(=O)N[C@@H](CCC(=O)O)C(=O)N[C@@H](CCCCN)C(=O)N[C@@H](CCCNC(=N)N)C(=O)N[C@@H](C)C(=O)N[C@@H](C)C(=O)NC(C)(C)C(=O)N[C@@H](CCC(=O)O)C(=O)N[C@@H](Cc1ccccc1)C(=O)N[C@H](C(=O)N[C@@H](CCC(=O)O)C(=O)N[C@@H](Cc1c[nH]c2ccccc12)C(=O)N[C@@H](CC(C)C)C(=O)N[C@@H](CCCCN)C(=O)N[C@@H](CC(N)=O)C(=O)N[C@H](C(=O)NCC(=O)N1CCC[C@H]1C(=O)N[C@@H](CO)C(=O)N[C@@H](CO)C(=O)NCC(=O)N[C@@H](C)C(=O)N1CCC[C@H]1C(=O)N1CCC[C@H]1C(=O)N1CCC[C@H]1C(=O)N[C@@H](CO)C(N)=O)[C@@H](C)O)[C@@H](C)CC)C(=O)O` [SEQ ID NO: 8, Y-Aib-Q-G-T-F-T-S-D-L-S-I-Q-K(γE-x53)-E-K-R-A-A-Aib-E-F-I-E-W-L-K-N-T-G-P-S-S-G-A-P-P-P-S-NH2] (H-Y[Aib]QGTFTSDLSIQK([γGlu-Palmitoyl])EKRAA[Aib]EFIEWLKNTGPSSGAPPPS-NH2), in data set [1], the EC50 stood at 5.3 pM. In data set [2], this compound had a Cmax of 3740 ng/mL and a half-life of 3.4 h. Besides, the solubility at 2 h in data set [3] (pH 4.5) was > 1000 µg/mL. The solubility at 2 h in data set [3] (pH 7.4) stood at 972 µg/mL (≈ 212 µM). Also, the “Stability (pH 4.5)” value in data set [4] (pH 4.5) came out at 98.0%. In data set [4] (pH 7.4), the “Stability (pH 7.4)” value came to 98.0%.
